The numbers were not newly measured in US20140080712A1, “COMPOSITIONS AND METHODS FOR DOUBLE ENCAPSULATION OF A VOLATILE COMPOUND” (AgroFresh Inc., priority 2012, published 2014), which cites them from elsewhere.

SMILES strings stand for the structures.

The subject of this data set is ethylene. The note with it: freshness management.

In the case of `CC1=CC1` [Sample 1-MCP, 1-methylcyclopropene], the “concentration effective in blocking ethylene” value was approximately 100 ppb.
